The EC50 is the concentration giving half of the maximal effect. High values mean weaker potency, low ones greater potency.

Consider 2 molecules from patent publication US7906518B2, “Therapeutic compounds” (CBT Development Limited, priority 2006, dated 2011).

The conditions of series [1]: monkey, multiple oral dosing, 14C-labelled; cited from earlier work.
The test system of series [2] is streptozocin induced static allodynia. Nature of the series: streptozocin-induced diabetic neuropathy, static allodynia (von Frey hairs). In kind it is in vivo. The note with it: rats. The protocol:
Diabetes was induced by a single i.p. injection of 50 mg/kg streptozocin (Sigma, 50 mg/ml/kg in citrate buffered saline 33 mM pH 4.5). Control animals received single i.p. injection of citrate buffered saline.

For the next series, the target named is adenosine A2A receptor (Homo sapiens, UniProt P29274). Description: EC50 at the adenosine A2A receptor. In kind it is biochemical.
Sequence of adenosine A2A receptor (P29274 whole entry): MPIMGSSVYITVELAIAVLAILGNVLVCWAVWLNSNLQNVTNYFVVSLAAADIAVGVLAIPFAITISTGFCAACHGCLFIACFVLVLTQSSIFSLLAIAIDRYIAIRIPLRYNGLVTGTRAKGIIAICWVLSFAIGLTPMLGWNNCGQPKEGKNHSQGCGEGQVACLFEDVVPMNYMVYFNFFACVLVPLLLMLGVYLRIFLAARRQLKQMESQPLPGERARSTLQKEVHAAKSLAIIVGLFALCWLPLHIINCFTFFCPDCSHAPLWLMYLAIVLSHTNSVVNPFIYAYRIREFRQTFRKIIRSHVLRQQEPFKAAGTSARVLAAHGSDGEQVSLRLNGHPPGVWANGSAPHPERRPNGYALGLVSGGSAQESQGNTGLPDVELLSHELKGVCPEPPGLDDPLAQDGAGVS

As to `N=C(N)c1ncn([C@@H]2O[C@H](CO)[C@@H](O)[C@H]2O)n1` [Viramidine], in series [1], the “drug level in red blood cells compared to Ribavarin” value is “only half in red blood cells” and the “drug level in the liver compared to Ribavarin” value was “three times the drug level in the liver”.

Take `COc1nc(N)c2ncn([C@@H]3O[C@H](CO)[C@@H](O)[C@H]3O)c2n1` [Spongosine, 2-methoxyadenosine]: in series [2] (0.6-[…] po), the “reversal of streptozocin induced static allodynia (PWT), all doses” value is “All doses were effective at reversing allodynia”. For the same molecule, the “reversal of streptozocin induced static allodynia (PWT), top dose” value in series [2] (top dose […] po) is listed as “fully reversed the allodynia”. The same molecule had an EC50 at adenosine A2A receptor of about 1 µM.
